# From patent US9862730B2, “Imidazothiadiazole derivatives as protease activated receptor 4 (PAR4) inhibitors for treating platelet aggregation” (BRISTOL-MYERS SQUIBB COMPANY, priority 2012, dated 2018)
# Target: PAR4 (Homo sapiens (Human), UniProt Q96RI0)
# Assay: FLIPR assay in PAR4-expressing HEK293 cells (PAR4 antagonist activity, calcium mobilization)
# Type: cell-based
# Details: FLIPR assay as described in Example A
# Procedure, shortened: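 Calcium-flux antagonist readout: compounds preincubated 30 min at room temperature with PAR4-transfected HEK293 cells in HBSS with 10 mM HEPES (0.67% DMSO final), then agonist peptide added. Agonist activity checked on compound addition; cells carry endogenous PAR1.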
# Chain of PAR4 (Q96RI0 18-385): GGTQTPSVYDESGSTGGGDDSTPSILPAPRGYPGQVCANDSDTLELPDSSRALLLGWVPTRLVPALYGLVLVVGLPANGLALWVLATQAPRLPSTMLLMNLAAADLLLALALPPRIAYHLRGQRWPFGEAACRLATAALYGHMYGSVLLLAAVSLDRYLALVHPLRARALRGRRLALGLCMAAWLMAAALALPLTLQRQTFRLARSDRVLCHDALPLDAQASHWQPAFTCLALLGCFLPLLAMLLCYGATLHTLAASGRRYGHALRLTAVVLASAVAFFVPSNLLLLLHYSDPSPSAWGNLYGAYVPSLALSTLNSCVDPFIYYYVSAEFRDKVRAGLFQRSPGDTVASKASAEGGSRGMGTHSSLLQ
row,IC50 [nM],Structure (SMILES)
1,29.6,COc1nn2cc(-c3cc4c(Br)ccc(OC)c4o3)nc2s1 [Example 289]
2,4.83,COc1ccc2cc(-c3cn4nc(C(C)F)sc4n3)oc2c1 (stereo not drawn) [Example 293]
3,19.5,COc1cc(OC)c2cc(-c3cn4nc(Br)sc4n3)oc2c1 [Example 294]
4,12.1,CSc1nn2cc(-c3cc4c(C)cc(C)cc4o3)nc2s1 [Example 295]
5,106,Cc1cc(C)c2cc(-c3cn4nc(Br)sc4n3)oc2c1 [Example 296]
6,5.88,COc1nn2cc(-c3cc4c(C)cc(C)cc4o3)nc2s1 [Example 297]
7,18.6,COc1cc(OC(C)C)c2cc(-c3cn4nc(SC)sc4n3)oc2c1 [Example 298]
8,78.8,COc1cc(OC(C)C)c2cc(-c3cn4nc(Br)sc4n3)oc2c1 [Example 299]
9,3.43,COc1cc(OC(C)C)c2cc(-c3cn4nc(OC)sc4n3)oc2c1 [Example 300]
10,13.6,COc1nn2cc(-c3cc4c(C(F)(F)F)cc(C)nc4o3)nc2s1 [Example 305]
11,1100,Cc1cc(C(F)(F)F)c2cc(-c3cn4nc(Br)sc4n3)oc2n1 [Example 306]
12,187,COc1cc(OCc2cccc(OCc3cccnc3C)c2)c2cc(-c3cn4nc(OC)sc4n3)oc2c1 [Example 308]
13,1.22,COc1cc(OCc2cccc(OCc3ccccc3OC)c2)c2cc(-c3cn4nc(OC)sc4n3)oc2c1 [Example 309]
14,3.45,COc1cc(OCc2cccc(OCc3cccc4ccccc34)c2)c2cc(-c3cn4nc(OC)sc4n3)oc2c1 [Example 310]
15,8.82,COc1cc(OCc2cccc(OCc3cc(F)cc(F)c3)c2)c2cc(-c3cn4nc(OC)sc4n3)oc2c1 [Example 311]
16,2.13,COc1cc(OCc2cccc(OCc3ccc(C)cc3C)c2)c2cc(-c3cn4nc(OC)sc4n3)oc2c1 [Example 312]
17,2.11,COc1cc(OCc2cccc(OCc3ccc(C(C)C)cc3)c2)c2cc(-c3cn4nc(OC)sc4n3)oc2c1 [Example 313]
18,0.72,COc1cc(OCc2cccc(OCc3cccc(F)c3F)c2)c2cc(-c3cn4nc(OC)sc4n3)oc2c1 [Example 314]
19,8.88,COc1cc(OCc2cccc(OCc3ccc(F)c(C(F)(F)F)c3)c2)c2cc(-c3cn4nc(OC)sc4n3)oc2c1 [Example 315]
20,8.36,COc1cc(OCc2cccc(OCc3ccccc3-c3ccccc3)c2)c2cc(-c3cn4nc(OC)sc4n3)oc2c1 [Example 317]

row,IC50 [nM],Structure (SMILES)
1,6.73,COc1cc(OCc2cccc(OCc3cc(C(F)(F)F)ccc3F)c2)c2cc(-c3cn4nc(OC)sc4n3)oc2c1 [Example 321]
2,9.97,COc1cc(OCc2cccc(OCc3ccccc3OC(F)(F)F)c2)c2cc(-c3cn4nc(OC)sc4n3)oc2c1 [Example 322]
3,1.48,COc1cc(OCc2cccc(OCc3ccc(Cl)cc3F)c2)c2cc(-c3cn4nc(OC)sc4n3)oc2c1 [Example 323]
4,3.52,COc1cc(OCc2cccc(OCc3ccc(C)c(Cl)c3)c2)c2cc(-c3cn4nc(OC)sc4n3)oc2c1 [Example 324]
5,3.36,COc1cc(OCc2cccc(OCc3ccccc3C(F)(F)F)c2)c2cc(-c3cn4nc(OC)sc4n3)oc2c1 [Example 326]
6,4.5,COc1cc(OCc2cccc(OCc3cc(F)c(F)c(F)c3)c2)c2cc(-c3cn4nc(OC)sc4n3)oc2c1 [Example 328]
7,71.6,COc1cc(OCc2cccc(OCc3cncnc3)c2)c2cc(-c3cn4nc(OC)sc4n3)oc2c1 [Example 329]
8,2.62,COc1cc(OCc2cccc(OCc3c(F)ccc(F)c3F)c2)c2cc(-c3cn4nc(OC)sc4n3)oc2c1 [Example 330]
9,84.3,"CSc1nn2cc(-c3nc4c(OC[C@H]5CCCN5C(=O)OC(C)(C)C)cccc4o3)nc2s1 [Example 331, (R)-tert-Butyl 2-(((2-(2-(methylthio)imidazo[2,1-b][1,3,4]thiadiazol-6-yl)benzo[d]oxazol-4-yl)oxy)methyl)pyrrolidine-1-carboxylate]"
10,253,"CSc1nn2cc(-c3nc4c(OC[C@@H]5CCCN5C(=O)OC(C)(C)C)cccc4o3)nc2s1 [Example 332, (S)-tert-Butyl 2-(((2-(2-(methylthio)imidazo[2,1-b][1,3,4]thiadiazol-6-yl)benzo[d]oxazol-4-yl)oxy)methyl)pyrrolidine-1-carboxylate]"
11,566,"CSc1nn2cc(-c3nc4c(OC[C@H]5CCCN5C(=O)[C@H](NC(=O)OC(C)(C)C)c5ccccc5)cccc4o3)nc2s1 [Example 333, tert-Butyl ((R)-2-((R)-2-(((2-(2-(methylthio)imidazo[2,1-b][1,3,4]thiadiazol-6-yl)benzo[d]oxazol-4-yl)oxy)methyl)pyrrolidin-1-yl)-2-oxo-1-phenylethyl)carbamate]"
12,2360,"CSc1nn2cc(-c3nc4c(OC[C@@H]5CCCN5C(=O)[C@H](NC(=O)OC(C)(C)C)c5ccccc5)cccc4o3)nc2s1 [Example 334, tert-Butyl ((R)-2-((S)-2-(((2-(2-(methylthio)imidazo[2,1-b][1,3,4]thiadiazol-6-yl)benzo[d]oxazol-4-yl)oxy)methyl)pyrrolidin-1-yl)-2-oxo-1-phenylethyl)carbamate]"
13,537,"CSc1nn2cc(-c3nc4c(OC[C@H]5CCCN5C(=O)[C@H](NC(=O)c5ccccc5)c5ccccc5)cccc4o3)nc2s1 [Example 335, N—((R)-2-((R)-2-(((2-(2-(Methylthio)imidazo[2,1-b][1,3,4]thiadiazol-6-yl)benzo[d]oxazol-4-yl)oxy)methyl)pyrrolidin-1-yl)-2-oxo-1-phenylethyl)benzamide]"
14,897,"CSc1nn2cc(-c3nc4c(OC[C@H]5CCCN5C(=O)[C@H](NC(=O)c5cccs5)c5ccccc5)cccc4o3)nc2s1 [Example 336, N—((R)-2-((R)-2-(((2-(2-(Methylthio)imidazo[2,1-b][1,3,4]thiadiazol-6-yl)benzo[d]oxazol-4-yl)oxy)methyl)pyrrolidin-1-yl)-2-oxo-1-phenylethyl)thiophene-2-carboxamide]"
15,1160,"CSc1nn2cc(-c3nc4c(OC[C@@H]5CCCN5C(=O)[C@H](NC(=O)c5cccs5)c5ccccc5)cccc4o3)nc2s1 [Example 338, N—((R)-2-((S)-2-(((2-(2-(Methylthio)imidazo[2,1-b][1,3,4]thiadiazol-6-yl)benzo[d]oxazol-4-yl)oxy)methyl)pyrrolidin-1-yl)-2-oxo-1-phenylethyl)thiophene-2-carboxamide]"
16,0.87,"COc1cc(OC[C@@H]2COC(C)(C)O2)c2cc(-c3cn4nc(OC)sc4n3)oc2c1 [Example 339, (R)-6-(4-((2,2-Dimethyl-1,3-dioxolan-4-yl)methoxy)-6-methoxybenzofuran-2-yl)-2-methoxyimidazo[2,1-b][1,3,4]thiadiazole]"
17,2.21,COc1cc(OC[C@H]2CCCN2C(=O)OC(C)(C)C)c2cc(-c3cn4nc(OC)sc4n3)oc2c1 [Example 340]
18,22,COc1cc(OC[C@H]2CCCN2C(=O)c2ccc(F)cc2)c2cc(-c3cn4nc(OC)sc4n3)oc2c1 [Example 341]
19,253,COc1cc(OC[C@@H]2CCCN2C(=O)OC(C)(C)C)c2cc(-c3cn4nc(OC)sc4n3)oc2c1 [Example 342-343]
20,1.12,COc1cc(OCc2cccc(OCc3ccccc3)c2)c2cc(-c3cn4nc(Br)sc4n3)oc2c1 [Example 344]

row,IC50 [nM],Structure (SMILES)
1,0.97,COc1cc(OCc2cccc(OCc3ccccc3)c2)c2cc(-c3cn4nc(SC)sc4n3)oc2c1 [Example 345]
2,0.32,COc1cc(OCc2cccc(OCc3cccc(Cl)c3)c2)c2cc(-c3cn4nc(OC)sc4n3)oc2c1 [Example 349]
3,2.23,COc1cc(OCc2ccc(OC)c(OCc3ccccc3)c2)c2cc(-c3cn4nc(OC)sc4n3)oc2c1 [Example 351]
4,3.61,COc1cc(OCc2ccc(C)c(OCc3ccccc3)c2)c2cc(-c3cn4nc(OC)sc4n3)oc2c1 [Example 352]
5,4.92,COc1cc(OCc2cccc(OCc3ccc(OCc4ccccc4)c(OC)c3)c2)c2cc(-c3cn4nc(OC)sc4n3)oc2c1 [Example 357]
6,2.47,COc1cc(OCc2cccc(OCc3ccccc3Br)c2)c2cc(-c3cn4nc(OC)sc4n3)oc2c1 [Example 360]
7,1.35,COc1cc(OCc2cccc(OCc3ccc(OC)c(OC)c3Cl)c2)c2cc(-c3cn4nc(OC)sc4n3)oc2c1 [Example 361]
8,1.24,COc1cc(OCc2cccc(OCc3ccccc3Cl)c2)c2cc(-c3cn4nc(OC)sc4n3)oc2c1 [Example 362]
9,3.27,COc1cc(OCc2cccc(OCc3ccc(Cl)c(Cl)c3)c2)c2cc(-c3cn4nc(OC)sc4n3)oc2c1 [Example 365]
10,164,COc1cc(OCc2cccc(OCc3ccc(OCc4ccccc4)cc3)c2)c2cc(-c3cn4nc(OC)sc4n3)oc2c1 [Example 366]
11,4.09,COc1cc(OCc2cccc(OCc3cc(Br)ccc3OC)c2)c2cc(-c3cn4nc(OC)sc4n3)oc2c1 [Example 367]
12,4.69,COc1cc(OCc2cccc(OCc3c(Cl)cccc3Cl)c2)c2cc(-c3cn4nc(OC)sc4n3)oc2c1 [Example 368]
13,2.98,COc1cc(OCc2cccc(OCc3ccc(F)cc3Cl)c2)c2cc(-c3cn4nc(OC)sc4n3)oc2c1 [Example 369]
14,2.3,COc1cc(OCc2cccc(OCc3ccc(F)cc3F)c2)c2cc(-c3cn4nc(OC)sc4n3)oc2c1 [Example 374]
15,260,COc1cc(OCc2cccc(OCc3cccc(OCc4cccc(Cl)c4)c3)c2)c2cc(-c3cn4nc(OC)sc4n3)oc2c1 [Example 375]
16,6.91,COc1cc(OCc2cccc(OCc3c(C)cc(C)cc3C)c2)c2cc(-c3cn4nc(OC)sc4n3)oc2c1 [Example 377]
17,7.38,COc1cc(OCc2cccc(OCc3ccc(Cl)cc3Cl)c2)c2cc(-c3cn4nc(OC)sc4n3)oc2c1 [Example 378]
18,7.84,COc1cc(OCc2cccc(OCc3ccccc3I)c2)c2cc(-c3cn4nc(OC)sc4n3)oc2c1 [Example 379]
19,1.11,COc1cc(OCc2cccc(OCc3cc(OC)c(OC)c(OC)c3)c2)c2cc(-c3cn4nc(OC)sc4n3)oc2c1 [Example 380]
20,2.77,COc1cc(OCc2cccc(OCc3ccc(C)c(C)c3)c2)c2cc(-c3cn4nc(OC)sc4n3)oc2c1 [Example 381]
